Results reported in US20100240682A1, “PHOPHYLACTIC OR THERAPEUTIC AGENT FOR INFLAMATORY DISEASE COMPRISING THYMIDINE PHOSPHORYLASE INHIBITOR AS ACTIVE INGREDIENT” (TAIHO PHARMACEUTICAL CO., LTD., priority 2007, published 2010).

Key:
[1] = tested on: IL-6 production in human monocytes cell line U937; assay: IL-6 production by PMA/thymidine-stimulated U937 cells; type: cell-based; settings: U937 after 10 ng/mL PMA and 10 μmol/L thymidine; 48 h after drug addition; vs control group
Description: Human monocytes cell line U937 were cultured using a 10% FBS RPMI 1640 medium (SIGMA-ALDRICH) at 37° C. under 5% CO2. Using a 24-well plate, U937 cells (1×10^5) were cultured for 24 hours in a medium containing 10 ng/mL phorbol-12-myristate-13-acetate (inflammatory substance, hereinafter abbreviated to as PMA) and 10 μmol/L thymidine in order for induction of inflammatory reaction. Twenty-four hours later, the medium was changed to fresh medium. To the drug administration group, TUPI or TPI was added. Forty-eight hours after the addition, the IL-6 level of each culture supernatant was determined by means of BioPlex (Bio-Rad Laboratories, Inc.).

[2] = tested on: rats having hydrochloric-acid-induced cystitis; assay: Hydrochloric-acid-induced cystitis model rat, bladder functions by cystometry; type: in vivo; settings: TPI 5, 50 or 100 mg/kg orally once a day for seven days; vs control group
Description: To rats having hydrochloric-acid-induced cystitis serving as a cystitis model, 5-chloro-6-(2-iminopyrrolidin-1-yl)methyl-2,4(1H,3H)-pyrimidinedione hydrochloride (hereinafter abbreviated as “TPI”) (5, 50, or 100 mg/kg) was orally administered continuously for seven days, and the effect of TPI on bladder functions was evaluated. Specifically, 10-week-old SD rats were divided into groups (n=6) on the basis of body weight. To each of the rats of the control group and TPI administration groups, 0.4N HCl (0.2 mL) was intravesically administered once to the bladder under pentobarbital anesthesia (50 mg/kg, i.p.), to thereby induce a cystitis model. To a Sham group, saline (0.2 mL) was intravesically administered. From the day following the induction of cystitis model, distilled water for injection (5 mL/kg) was administered to the Sham and control groups, while distilled water for injection (5 mL/kg) containing TPI (5, 50, or 100 mg/kg) was administered to the TPI administration groups. In each case, the liquid was administered by forced oral administration once a day continuously for seven days. On the day following the final administration day, bladder functions (urination intervals and single urination output) of the rats of each group were evaluated through cystometry under anesthesia in accordance with a method described in BJU Int. 2007 October; 100(4): 935-9.

[3] = tested on: concanavalin-A-induced hepatitis model mice; assay: Concanavalin-A-induced hepatitis model, serum AST and ALT; type: in vivo, mouse; settings: TPI 100 mg/kg oral, 30 min before concanavalin A i.v., 24 h after
Description: TPI (100 mg/kg) was orally single-administered to […] in which hepatitis had been induced by concanavalin A (i.e., a hepatitis model), and the inhibitory effect of TPI on hepatitis was evaluated. Specifically, 6-week-old female C57BL/6NCrlCrlj mice (Charles River Laboratories Japan Inc.) were employed. To the TPI administration group, TPI (100 mg/kg) was orally administered, and after 30 minutes 2 mg/mL concanavalin A (150 μL/animal) was intravenously administered through the tail vein. To the control group, only a vehicle was orally administered instead of TPI. […] The serum ALT level (IU/L) and AST level (IU/L) were determined as index for liver disorders.

[4] = tested on: collagen arthritis mice; assay: Collagen arthritis model mouse, arthritis score; type: in vivo; settings: 500 mg/kg orally once a day; 11 to 14 days after second immunization
Description: TPI (250 or 500 mg/kg) was orally administered to collagen arthritis mice (i.e., rheumatic model) continuously for 14 days, and the effect of TPI on edema of the limbs of each mouse was evaluated. Arthritis was induced in […] mice by type II collagen induction, and the mice were employed as a rheumatoid arthritis model. Specifically, type II collagen derived from bovine joint (K42, product of Collagen Gijyutsu Kensyukai) (200 μg) was suspended in Freund's complete adjuvant (DIFCO) (100 μL), and on day 1, the suspension was intradermally administered to the back of 8-week-old mice (DBA/1JN mice, Charles River Laboratories Japan Inc.). On day 21, type II collagen derived from bovine joint (K42) (200 μg) suspended in Freund's complete adjuvant (100 μL) was intradermally administered to the tail portion of each mice, to thereby induce an arthritis model. To the TPI administration groups, TPI (250 or 500 mg/kg/day) was orally administered continuously once a day during a period from day 21 to day 40. To the control, a solvent (0.5% aqueous HPMC) was administered instead of TPI according to the same administration schedule as employed in the TPI administration groups. […] The arthritis condition was evaluated on day 42; i.e., the day following the final administration day. […]

[5] = tested on: rats having hydrochloric-acid-induced cystitis; assay: Hydrochloric-acid-induced rat interstitial cystitis model, histological changes of the bladder (HE staining); type: in vivo
Description: To rats having hydrochloric-acid-induced cystitis serving as an interstitial cystitis model, TPI (50 or 500 mg/kg) was orally administered continuously for seven days, and the effect of TPI on pathological histological improvement of the bladder tissue was evaluated. Specifically, 10-week-old SD rats were divided into groups (n=6) on the basis of body weight. To each of the rats of a control group and TPI administration groups, 0.4N HCl (0.2 mL) was intravesically administered once to the bladder under pentobarbital anesthesia (50 mg/kg, i.p.), to thereby induce a cystitis model. To a Sham group, saline (0.2 mL) was intravesically administered. From the day following the induction of cystitis model, distilled water for injection (5 mL/kg) was administered to the Sham and control groups, while distilled water for injection (5 mL/kg) containing TPI (50 or 500 mg/kg) was administered to the TPI administration groups. In each case, the liquid was orally administered continuously once a day for seven days. On the day following the final administration day, the bladder was removed from each of the rats under ether anesthesia and washed with saline. Subsequently, the washed bladder was fixed with 20% buffered formalin and 10% buffered formalin, followed by HE staining. Histological changes of the bladder were observed. […]

[6] = tested on: rats in which ulcer had been induced by hydrochloric acid; assay: Hydrochloric-acid-induced acute gastritis model rat, gastric mucosal damage (lesion length); type: in vivo; settings: control 120.4±8.5 mm
Description: TPI (100 or 200 mg/kg) was orally single-administered to rats in which ulcer had been induced by hydrochloric acid (i.e., an acute gastritis model), and the preventive effect of TPI on mucosal damage was evaluated. Specifically, 7-week-old female SD rats (Charles River Laboratories Japan Inc.) were fasted for about 18 hours. To the TPI administration groups, TPI (100 or 200 mg/kg) was orally administered, and after 30 minutes 0.6N HCl (5 mL/kg) was orally administered. To the control group, only 0.6N HCl (5 mL/kg) was orally administered. One hour after administration of hydrochloric acid, rats were euthanized through, and the stomach was removed from each rat. The tissue thereof was fixed with 1% formaline buffer, and the stomach was cut through the greater curvature. The longer diameter (mm) of a lesion was measured by means of an electronic caliper, and the total of the diameters was employed as an index for evaluating gastric mucosal damage.

`Nc1[nH]c(=O)[nH]c(=O)c1Cl` [TUPI, 5-chloro-6-aminouracil, reference compound] was tested, and the “IL-6 level of culture supernatant” value [1] was “more significant suppression”.

For `Cl.N=C1CCCN1Cc1[nH]c(=O)[nH]c(=O)c1Cl` [TPI, 5-chloro-6-(2-iminopyrrolidin-1-yl)methyl-2,4(1H,3H)-pyrimidinedione hydrochloride], the “bladder functions (urination interval, single urination output, effective vesical capacity, residual urine)” value [2] was “improved in response to the administration amount”, the “serum AST level” value ([3]; control 4,506±864) was 1,540±477 IU/L and the “serum ALT level” value ([3]; control 6,130±800) was 2,538±755 IU/L. For the same compound, the arthritis scores [4] was “significant suppression”, the “IL-6 level of culture supernatant” value [1] was “more significant suppression” and the “Entire bladder: Thickening/proliferation of transitional epithelium, number of samples” value (“Entire bladder: Thickening/proliferation” below) ([5]; TAS-111 (50), grade +) was 1. For the same compound, the “Lamina propria: Edema, number of samples” value ([5]; TAS-111 (50), grade +) was 0, the “Lamina propria: Infiltration of mast cells/eosinocytes, number of samples” value ([5]; TAS-111 (50), grade +) was 1 and the “Tunica muscularis: Edema, number of samples” value (shortened to “Tunica muscularis: Edema”) ([5]; TAS-111 (50), grade +) was 2. For the same compound, the “Tunica muscularis: Infiltration of mast cells/eosinocytes, number of samples” value ([5]; TAS-111 (50), grade +) was 2, the “Entire bladder: Thickening/proliferation” value ([5]; TAS-111 (50), grade ++) was 2 and the “Lamina propria: Edema, number of samples” value ([5]; TAS-111 (50), grade ++) was 2. The “Lamina propria: Infiltration of mast cells/eosinocytes, number of samples” value ([5]; TAS-111 (50), grade ++) was 2, the “Tunica muscularis: Edema” value ([5]; TAS-111 (50), grade ++) was 0 and the “Tunica muscularis: Infiltration of mast cells/eosinocytes, number of samples” value ([5]; TAS-111 (50), grade ++) was 0. For the same compound, the “Entire bladder: Thickening/proliferation” value ([5]; TAS-111 (50), grade +++) was 0, the “Lamina propria: Edema, number of samples” value ([5]; TAS-111 (50), grade +++) was 0 and the “Lamina propria: Infiltration of mast cells/eosinocytes, number of samples” value ([5]; TAS-111 (50), grade +++) was 0. The “Tunica muscularis: Edema” value ([5]; TAS-111 (50), grade +++) was 0, the “Tunica muscularis: Infiltration of mast cells/eosinocytes, number of samples” value ([5]; TAS-111 (50), grade +++) was 0 and the “Entire bladder: Thickening/proliferation” value ([5]; TAS-111 (500), grade +) was 1. The “Lamina propria: Edema, number of samples” value ([5]; TAS-111 (500), grade +) was 0, the “Lamina propria: Infiltration of mast cells/eosinocytes, number of samples” value ([5]; TAS-111 (500), grade +) was 2 and the “Tunica muscularis: Edema” value ([5]; TAS-111 (500), grade +) was 0. The “Tunica muscularis: Infiltration of mast cells/eosinocytes, number of samples” value ([5]; TAS-111 (500), grade +) was 0, the “Entire bladder: Thickening/proliferation” value ([5]; TAS-111 (500), grade ++) was 0 and the “Lamina propria: Edema, number of samples” value ([5]; TAS-111 (500), grade ++) was 1. For the same compound, the “Lamina propria: Infiltration of mast cells/eosinocytes, number of samples” value ([5]; TAS-111 (500), grade ++) was 0, the “Tunica muscularis: Edema” value ([5]; TAS-111 (500), grade ++) was 0 and the “Tunica muscularis: Infiltration of mast cells/eosinocytes, number of samples” value ([5]; TAS-111 (500), grade ++) was 0. For the same compound, the “Entire bladder: Thickening/proliferation” value ([5]; TAS-111 (500), grade +++) was 0, the “Lamina propria: Edema, number of samples” value ([5]; TAS-111 (500), grade +++) was 0 and the “Lamina propria: Infiltration of mast cells/eosinocytes, number of samples” value ([5]; TAS-111 (500), grade +++) was 0. The “Tunica muscularis: Edema” value ([5]; TAS-111 (500), grade +++) was 0, the “Tunica muscularis: Infiltration of mast cells/eosinocytes, number of samples” value ([5]; TAS-111 (500), grade +++) was 0 and the “gastric mucosal damage (total of longer diameters of lesions)” value ([6]; TPI 100 mg/kg oral single dose 30 min before 0.6N HCl, significantly reduced) was 63.0±14.3 mm. For the same compound, the “gastric mucosal damage (total of longer diameters of lesions)” value ([6]; TPI 200 mg/kg oral single dose 30 min before 0.6N HCl) was 76.1±18.3 mm.
